Results published in paper PMC4841542, “New Anti-Inflammatory Metabolites by Microbial Transformation of Medrysone” (PLoS ONE, 2016).
Values after ≈ are worked out from the molar mass of the structure shown. “Also recorded” adds a separate entry of the source. Like-named read-outs stand apart in the source and are kept apart here.

Experiments:
[1] = test system: zymosan activated PMNs (human whole blood cells); assay: Oxidative burst inhibition assay (luminol-enhanced chemiluminescence, zymosan-activated); type: cell-based; settings: for IC50: Whole blood cell, zymosan activated PMNs / human whole blood, tested at 1, 10, 100 μg/mL, mean ± SD of triplicates
Method: Oxidative burst assay was carried out by chemiluminescence technique using luminol as a probe to determine the effect of test compounds on the production of reactive oxygen species (ROS) from phagocytes, employing […] et al. method with slight modifications. […] Louis, MO, USA) and 25 μL ([…]) of luminol (Sigma Chemical Co., St. Louis, MO, USA). HBSS^++ alone was run as a negative control. The level of ROS was measured as RLU (relative light units) with a luminometer (Labsystem Luminoskan RS, Finland). The luminometer was used in repeated scan mode with 50 seconds interval, and one second point measuring time.

[2] = test system: PHA activated T-cells; assay: T-cell proliferation inhibition assay (PBMC, tritiated thymidine); type: cell-based, human; settings: for Inhibition of T-cell proliferation (in words): PHA activated T-cells; for IC50: T-cell
Method: The T-Cell proliferation inhibitory activity of compounds was evaluated by following the reported method of Nielsen et al. (1998) with slight modifications. Peripheral blood mononuclear cells (PBMC) were isolated from healthy human donors with their consent by Ficoll-Hypaque density gradient centrifugation. The study was carried out after approval from independent ethics committee, ICCBS-UoK, No: ICCBS/IEC-008-BC-2015/Protocol/1.0.
The cells were adjusted to a final concentration of 2 × 10^6 cells/mL in 5% FBS (fetal bovine serum) containing RPMI 1640 media and added with 5 μg/mL phytohemagglutinin (PHA) in 96-well round bottom plates. Each compound was added in triplicate using four concentrations (0.2, 1, 5, and 25 μg/mL). Positive control wells contained cells and PHA, whereas cells alone served as a negative control. The plate was incubated in 5% CO2 at 37°C for 72 h, and cells were pulsed with 25 μL of tritiated thymidine (0.5 μci/well). The incubation was continued for further 18 h. The cells were finally harvested on a glass fiber filter, and the plate was read as count per minute (CPM) using β-scintillation counter.

[3] = test system: TNF-α produced by LPS activated THP-1 cells; assay: Cytokine inhibition assay (TNF-α ELISA); type: cell-based, human; settings: for inhibition at 25 µg/mL: Homo sapiens, read-out: TNF-α % inhibition
Excerpt: THP-1 (Human monocytic leukemia cells) was purchased from ECACC (85011428, European Collection of Cell Cultures, UK). The cells were maintained in endotoxin free RPMI-1640 containing 5.5 mmol/L glucose (BioM Laboratories, Chemical Division, Malaysia), 50 μmol/L mercaptoethanol Merck (Damstadt, Germany), 10% FBS (fetal bovine serum), 2 mmol/L L-glutamine (PAA Laboratories, GmbH, Pasching, Austria), 1 mmol/L sodium pyruvate (GIBCO, Grand Island, N.Y., U.S.A.), and 10 mmol/L HEPES (MP Biomedicals, lllkirch, France). Upon reaching 70% confluency, 2.5×10^5 cells/mL cells were plated in 24 well tissue culture plates. The cells were differentiated using 20 ng/mL phorbol myristate acetate (PMA) (SERVA, Heidelberg, Germany) for 24 hours. The cells were stimulated by adding 50 ng/mL of Escherichia coli lipopolysaccharide B (DIFCO Laboratories, U.S.A.) and treated with compound (25 μg/mL). The incubation was continued for 4 hours at 37°C in 5% CO2. The supernatants collected were analyzed for the level of pro-inflammatory cytokine TNF-α, and quantification was performed by human TNF-α kit (R&D Systems, Minneapolis, U.S.A.), according to manufacturer’s instructions.

[4] = human PBMC, 5 μg/mL PHA, tested at 0.2, 1, 5, 25 μg/mL, mean ± SD of triplicates, read-out: IC50, PHA activated T-cells proliferation
[5] = Homo sapiens, read-out: IC50, PHA activated T-cells proliferation, human PBMC, 5 μg/mL PHA, tested at 0.2, 1, 5, 25 μg/mL, mean ± SD of triplicates

Structure (SMILES)	IC50 [1]	Inhibition of T-cell proliferation (in words) [2]	IC50 [2, 4]	inhibition at 25 µg/mL ([3]; compound 25 μg/mL, LPS activated THP-1 cells, 4 h, mean ± SD of triplicates, -ve sign = increase in cytokine level)	Inhibition of TNF-α production (in words) ([3]; LPS activated THP-1 cells)	IC50 [2, 5]	inhibition at 25 µg/mL ([3]; THP-1, 4 h)	melting point	Inhibition of oxidative burst / ROS (in words) ([1]; zymosan-induced, human whole blood cells / PMNs)	IC50, PHA activated T-cells proliferation ([2]; human PBMC, 5 μg/mL PHA, tested at 0.2, 1, 5, 25 μg/mL, mean ± SD of triplicates)
CC(=O)[C@H]1CC[C@H]2[C@@H]3C[C@H](C)C4=CC(=O)CC[C@]4(C)[C@H]3[C@@H](O)C[C@]12C [Compound 1, 11β-hydroxy-6α-methylpregn-4-ene-3,20-dione, reference compound]	> 100 µg/mL	strongly inhibited; also recorded: strong inhibitory activity	2.9 ± 0.04 µg/mL (≈ 8.42 µM)	30.5 ± 1.69%	inhibit; also recorded: moderate levels of inhibition	–	–	–	–	–
CC(=O)[C@H]1CC[C@@]2(O)[C@@H]3C[C@H](C)C4=CC(=O)CC[C@]4(C)[C@H]3C(=O)C[C@]12C [Compound 2, 14α-Hydroxy-6α-methylpregn-4-ene-3,11,20-trione]	> 100 µg/mL	moderate inhibitors	–	–	–	20 ± 0.9 µg/mL (≈ 55.8 µM)	-4.04 ± 0.2%	209 to 210 °C	–	–
CC(=O)[C@H]1CC[C@H]2[C@@H]3C[C@@](C)(O)C4=CC(=O)CC[C@]4(C)[C@H]3C(=O)C[C@]12C [Compound 3, 6β-Hydroxy-6α-methylpregn-4-ene-3,11,20-trione]	> 100 µg/mL	moderate inhibitors	–	–	–	14.6 ± 2.1 µg/mL (≈ 40.7 µM)	-2.69 ± 5.08%	–	–	–
CC(=O)[C@H]1C[C@@H](O)[C@H]2[C@@H]3C[C@H](C)C4=CC(=O)CC[C@]4(C)[C@H]3C(=O)C[C@@]21C [Compound 4, 15β-Hydroxy-6α-methylpregn-4-ene-3,11,20-trione]	> 100 µg/mL	strongly inhibited; also recorded: strong inhibitory activity	–	–	–	9.2 ± 0.7 µg/mL (≈ 25.7 µM)	-7.49 ± 1.27%	185 to 186 °C	–	–
CC(=O)[C@@]1(O)CC[C@H]2[C@@H]3C[C@@](C)(O)C4=CC(=O)CC[C@]4(C)[C@H]3C(=O)C[C@@]21C [Compound 5, 6β,17α-Dihydroxy-6α-methylpregn-4-ene-3,11,20-trione]	> 100 µg/mL	strongly inhibited; also recorded: strong inhibitory activity	–	–	–	1.2 ± 0.02 µg/mL (≈ 3.2 µM)	6.44 ± 0.21%	289 to 291 °C	–	–
CC(O)C1CCC2C3CC(C)(O)C4=CC(=O)CCC4(C)C3C(=O)CC12C (stereo not drawn) [Compound 6, 6β,20S-Dihydroxy-6α-methylpregn-4-ene-3,11-dione]	30.3 ± 8.8 µg/mL	moderate inhibitors	–	–	–	15.2 ± 2.4 µg/mL (≈ 42.2 µM)	4.4 ± 9.6%	229 to 230 °C	moderate inhibitory activity	–
CC(=O)[C@H]1[C@@H](O)C[C@H]2[C@@H]3C[C@H](C)C4=CC(=O)CC[C@]4(C)[C@H]3[C@@H](O)C[C@@]21C [Compound 7]	> 100 µg/mL	strongly inhibited; also recorded: strong inhibitory activity	–	–	inhibit; also recorded: moderate levels of inhibition	0.2 to 10.4 µg/mL (≈ 0.555 to 28.8 µM)	28.6 ± 11.5%	–	–	<0.2 µg/mL
C[C@H]1C[C@H]2[C@@H]3[C@H](O)C[C@H]([C@@H](C)O)[C@@]3(C)CC(=O)[C@@H]2[C@@]2(C)CCC(=O)C=C12 [Compound 8, 15β,20R-Dihydroxy-6α-methylpregn-4-ene-3,11-dione]	> 100 µg/mL	strongly inhibited; also recorded: strong inhibitory activity	–	–	–	10.4 ± 0.42 µg/mL (≈ 28.8 µM)	-8.23 ± 2.75%	274 to 275 °C	–	–
CC(C)Cc1ccc(C(C)C(=O)O)cc1 (stereo not shown) [Ibuprofen, reference compound]	2.5 ± 0.6 µg/mL	–	–	–	–	–	–	–	–	–
C[C@]12C=CC(=O)C=C1CC[C@@H]1[C@@H]2[C@@H](O)C[C@@]2(C)[C@H]1CC[C@]2(O)C(=O)CO [Prednisolone, reference compound]	–	–	< 3.1 µg/mL	–	–	–	–	–	–	–
